US6951658B1, “Emu-based compositions for mental well-being and method of use” (Pearson Research & Development Limited, priority 2003, dated 2005)

Columns and labels:
[1] = side effects in the Example 2 patient; assay type: in vivo, human; details: Example 2, person, oral
Source text: Example 2 Mature human ingests 7 to 10 drops of emu oil per day, […].

[2] = subjects with age-related memory decline, 60 days of treatment; cited from earlier work
[3] = rats; cited from earlier work
[4] = humans; cited from earlier work
[5] = multi-infarct dementia patients; cited from earlier work

With `CC[C@H](C)C(=O)O[C@H]1C[C@@H](C)C=C2C=C[C@H](C)[C@H](CC[C@@H]3C[C@@H](O)CC(=O)O3)[C@H]21` [Mevocore] the side effects [1] was “has suffered side effects, including hair loss”.

In the case of `O=C(O)[C@@H]1CCC(O)=N1` [pyroglutamate, 2-oxo-pyrrolidone carboxylic acid], the verbal memory functions [2] is listed as “effective in improving verbal memory functions”, the anti-anxiety effects [3] is listed as “has anti-anxiety effects” and the memory and learning [3] is listed as “improves memory and learning”. For the same molecule, the alcohol-induced memory deficits [4] was “effective”, the attention [5] was “significant increase of attention” and the consolidation of memory [5] was “statistically significant improvement”. The “psychological tests of short-term retrieval, long-term retrieval and long-term storage of memory” value [5] was “improvement”.
